Earlier results in patent US10104888B2, “Tannin-chitosan composites” (WISCONSIN ALUMNI RESEARCH FOUNDATION, priority 2009, dated 2018).

Conditions: in vivo

poly(β-(1→4)-2-amino-2-deoxy-D-glucopyranose) [Chitosan]
LD50: > 16 g/kg
